In PubChem BioAssay AID1963972 (Molecular Pharmacology Branch, DTP, NCI, 2024):

System: 945468-187-T-J2-PDC spheroids viability
Experiment: Anticancer human tumor 945468-187-T-J2-PDC patient-derived rectal carcinoma cell line growth inhibition [PI3K]
Details: spheroids with HUVEC and MSC; for IC50: curve of first compound; for viability, T/C: stronger effect = lower value
Excerpt: Combinatorial screen of targeted agents with the PI3K inhibitors inavolisib, alpelisib, duvelisib, and copanlisib in multi-cell type tumor spheroids
A high-throughput screen of multi-cell type tumor spheroids was designed to identify active combinations of targeted small molecules and PI3K pathway inhibitors. Complex spheroids include a stromal component modeled by human endothelial cells (HUVEC) and fibroblasts modeled by human mesenchymal stem cells (MSCs). The concentration ranges selected for each drug and investigational agent were based upon clinically achievable concentrations if the clinical Cmax of the agent was known.
Compounds. The drugs and investigational agents: inavolisib (NSC800729), alpelisib (NSC765974), duvelisib (NSC772469), copanlisib (NSC816437), ipatasertib (NSC767898), afuresertib (NSC778305), talazoparib (NSC767125), sapanisertib (NSC764658), selumetinib (NSC741078), tovorafenib (DAY101, NSC766906), vemurafenib (NSC761431), ravoxertinib (NSC781343), sotorasib (NSC818433), MRTX1133 (NSC 836407), abemaciclib (NSC 768073), palbociclib (NSC758247), venetoclax (NSC 766270), SY5609 (NSC837396), enzalutamide (NSC755605), and darolutamide (NSC825331), were obtained from the National Cancer Institute (NCI) Developmental Therapeutics Program Chemical Repository. The FDA-approved anticancer drug set is available from the NCI Developmental Therapeutics Program. […] The stock solutions were prepared in dimethyl sulfoxide (DMSO, Sigma-Aldrich, St. Louis, MO, cat. D2650) at 800-fold the tested concentration and stored at -70 degrees C prior to their use. All drugs and investigational agents were tested over a range starting from a high concentration at or near the clinical Cmax and decreasing in half-log increments. If the clinical Cmax for an agent had not been determined, the highest concentration tested was 10 microM.
Cell Culture. All cells were maintained in an incubator at 37 degrees C and 5% CO2 with 95% humidity. The PDC lines were cultured according to standard operating procedures established by the NCI PDMR (https://pdmr.cancer.gov/sops/default.htm). All PDCs were thawed and cultured in Matrigel-coated flasks prepared with a working solution of 1X Ham's F-12 nutrient mix, without supplementation (Invitrogen, Waltham, MA, cat. 11765054), 100 U/mL penicillin-streptomycin (Invitrogen, cat. 15140122), and 2.5% Matrigel (Corning Inc., Corning, NY, cat. 354248) for the first three passages. The 354836-022-R-J1-PDC, 475296-252-R-J1-PDC, and 997726-040-R-J2-PDC lines were cultured in 6A media, which includes advanced DMEM/F-12 (Thermo Fisher Scientific, cat. 12634028), 10 mM HEPES (Thermo Fisher Scientific, cat. 15630080), 1X GlutaMAX supplement (Thermo Fisher Scientific, cat. 35050061), 0.1 mg/mL primocin (InvivoGen, San Diego, CA, cat. ant-pm-2), 10% defined fetal bovine serum, heat inactivated (HyClone Laboratories Inc., Logan, UT, cat. SH30070.03HI), 50% L-WRN conditioned media (ATCC, cat. CRL-3276), 1.25 mM N-Acetyl-L-cysteine (Sigma-Aldrich, cat. A9165), 10 mM nicotinamide (Sigma-Aldrich, cat. N0636), 1X B-27 supplement (Thermo Fisher Scientific, cat. 17504044), 1X N-2 supplement (Thermo Fisher Scientific, cat. 17502048), and 10 microM Y-27632 dihydrochloride (Tocris Bioscience, Bristol, United Kingdom, cat. 1254). The 624824-186-R-J2-PDC line was cultured in 6C/Colon 1B media, which includes all 6A media components plus 50 ng/mL human EGF recombinant protein (Thermo Fisher Scientific, cat. PHG0311). […]
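Also: spheroids exposed to compounds for seven days before reading.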

With Cn1cnc2c(F)c(Nc3ccc(Br)cc3Cl)c(C(=O)NOCCO)cc21 + CC(Nc1ccc2c(c1)OCCn1cc(N3C(=O)OCC3C(F)F)nc1-2)C(N)=O the IC50 (second compound 0.00316 µM) was greater than 3 µM, the IC50 (second compound 0.01 µM) was greater than 3 µM and the IC50 (second compound 0.0316 µM) was greater than 3 µM. It also gave an IC50 (second compound 0.1 µM) greater than 3 µM, an IC50 (second compound 0.316 µM) greater than 3 µM and an IC50 (second compound 1 µM) of 0.714 µM. It also gave a viability, T/C (second compound 0.00316 µM, first compound 0.00949 µM) of 121%, a viability, T/C (second compound 0.00316 µM, first compound 0.03 µM) of 86.4% and a viability, T/C (second compound 0.00316 µM, first compound 0.0949 µM) of 114%. It also gave a viability, T/C (second compound 0.00316 µM, first compound 0.3 µM) of 75.8%, a viability, T/C (second compound 0.00316 µM, first compound 0.949 µM) of 70.7% and a viability, T/C (second compound 0.00316 µM, first compound 3 µM) of 74.5%. For the same compound, the viability, T/C (second compound 0.01 µM, first compound 0.00949 µM) was 92.2%, the viability, T/C (second compound 0.01 µM, first compound 0.03 µM) was 101% and the viability, T/C (second compound 0.01 µM, first compound 0.0949 µM) was 92.2%. The viability, T/C (second compound 0.01 µM, first compound 0.3 µM) was 89.4%, the viability, T/C (second compound 0.01 µM, first compound 0.949 µM) was 74.9% and the viability, T/C (second compound 0.01 µM, first compound 3 µM) was 78.5%. The viability, T/C (second compound 0.0316 µM, first compound 0.00949 µM) was 121%, the viability, T/C (second compound 0.0316 µM, first compound 0.03 µM) was 99.6% and the viability, T/C (second compound 0.0316 µM, first compound 0.0949 µM) was 112%. It also gave a viability, T/C (second compound 0.0316 µM, first compound 0.3 µM) of 93.7%, a viability, T/C (second compound 0.0316 µM, first compound 0.949 µM) of 78.8% and a viability, T/C (second compound 0.0316 µM, first compound 3 µM) of 74.5%. For the same compound, the viability, T/C (second compound 0.1 µM, first compound 0.00949 µM) was 88.9%, the viability, T/C (second compound 0.1 µM, first compound 0.03 µM) was 102% and the viability, T/C (second compound 0.1 µM, first compound 0.0949 µM) was 81.2%. For the same compound, the viability, T/C (second compound 0.1 µM, first compound 0.3 µM) was 80.4%, the viability, T/C (second compound 0.1 µM, first compound 0.949 µM) was 75.1% and the viability, T/C (second compound 0.1 µM, first compound 3 µM) was 74.2%. It also gave a viability, T/C (second compound 0.316 µM, first compound 0.00949 µM) of 69.9%, a viability, T/C (second compound 0.316 µM, first compound 0.03 µM) of 88.6% and a viability, T/C (second compound 0.316 µM, first compound 0.0949 µM) of 72.4%. It also gave a viability, T/C (second compound 0.316 µM, first compound 0.3 µM) of 75.6%, a viability, T/C (second compound 0.316 µM, first compound 0.949 µM) of 75.9% and a viability, T/C (second compound 0.316 µM, first compound 3 µM) of 66.1%. The viability, T/C (second compound 1 µM, first compound 0.00949 µM) was 75.7%, the viability, T/C (second compound 1 µM, first compound 0.03 µM) was 72% and the viability, T/C (second compound 1 µM, first compound 0.0949 µM) was 72.8%. It also gave a viability, T/C (second compound 1 µM, first compound 0.3 µM) of 65.2%, a viability, T/C (second compound 1 µM, first compound 0.949 µM) of 45% and a viability, T/C (second compound 1 µM, first compound 3 µM) of 37.6%.
